Measurements: PMC9230797, “Integration of a Physiologically Based Pharmacokinetic and Pharmacodynamic Model for Tegoprazan and Its Metabolite: Application for Predicting Food Effect and Intragastric pH Alterations” (Pharmaceutics, 2022)
Where “and” joins values, the source holds several entries; their conditions need not be identical. Equal values may be shown once.

Key:
[1] = set-up: method as in PMID 32055586; details: Observed (n = 12); single 100 mg tegoprazan; mean (5th–95th percentile); cited from earlier work
recombinant CYP2C8 = target: T1, recombinant CYP2C8 (Homo sapiens, UniProt P10632); assay: Intrinsic clearance using recombinant CYPs: CYP2C8; assay type: in vitro ADME; details: 1 μM
T1 construct: purchased Corning Life Sciences (Woburn, MA, USA)
T1 sequence (P10632 1-490): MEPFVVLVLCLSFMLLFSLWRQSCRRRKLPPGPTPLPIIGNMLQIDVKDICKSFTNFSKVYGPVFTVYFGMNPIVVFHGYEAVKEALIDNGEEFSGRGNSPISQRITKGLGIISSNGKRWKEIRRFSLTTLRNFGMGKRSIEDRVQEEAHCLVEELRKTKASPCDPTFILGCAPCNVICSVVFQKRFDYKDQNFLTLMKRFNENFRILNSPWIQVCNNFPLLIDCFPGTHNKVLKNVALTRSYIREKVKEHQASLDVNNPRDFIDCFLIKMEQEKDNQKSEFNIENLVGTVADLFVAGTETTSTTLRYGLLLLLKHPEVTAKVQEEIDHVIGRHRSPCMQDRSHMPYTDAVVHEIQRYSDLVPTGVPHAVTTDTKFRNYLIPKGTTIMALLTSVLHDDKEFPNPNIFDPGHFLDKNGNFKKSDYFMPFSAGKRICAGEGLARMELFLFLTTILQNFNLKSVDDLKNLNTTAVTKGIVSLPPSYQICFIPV
Procedure: The elimination profiles of tegoprazan and M1 were assessed using rCYPs. All the assay procedures were performed according to the manufacturer’s instructions. Master mix (1.399 mL), containing the NADPH-generating system, 3.3 mM of glucose 6-phosphate, PBS buffer, deionized water, and each rCYP (25 pmol/μL of CYP2C8, 2C19, and 2E1 and 50 pmol/μL of CYP3A4, 2C9, and 2D6), was added to a microtube and pre-incubated at 37 °C for 5 min. Next, 1 μM tegoprazan and M1 were added and incubated at 37 °C for 0, 5, 10, 20, 30, 45, and 60 min. A total of 100 μL of the sample, incubated for predefined duration, was transferred to a fresh e-tube. Next, 200 μL of acetonitrile containing tegoprazan-d6 (0.5 μM) was added, vortexed for 5 min, and centrifuged at 16,200× g and 4 °C for 10 min. The concentrations of the remaining tegoprazan and M1 were determined by LC–MS/MS. All experiments were performed in duplicate. CLint,rCYP levels were assessed using the results of the disappearance test. The terminal slope of the linear regression was used to determine the CLint for tegoprazan. The CLint resulting from rCYPs was calculated using Equation (3):(3) CLint,rCYP(μL/min/pmol CYP)=0.693/t1/2×1400/concentration of CYP […]

porcine H^+/K^+-ATPase = details: experimental; read-out: half maximal inhibitory concentration (IC50); cited from earlier work

- CLint, CYP2C8 (recombinant CYP2C8; experimental data): 0.06 µL/min/pmol and 0.060 µL/min/pmol
- Slope (disappearance) (recombinant CYP2C8; rCYP2C8): 0.002
SMILES: Cc1nc2cc(C(=O)N(C)C)cc(O[C@H]3CCOc4cc(F)cc(F)c43)c2[nH]1 [tegoprazan]
- AUC0–24 h [1]: 5611 (3783–7489) ng × h/mL
- CL [1]: 17.8 (13.1–24.4) L/h
- Cmax [1]: 1425 (908–2184) ng/mL
- IC50 (porcine H^+/K^+-ATPase): 530 nM
